Experimental data published in publication PMC12717099, “Peptidoglycan recruitment by a penicillin binding protein” (Nature Communications, 2025).

Assays:
Format in all cases: cell-based, Enterococcus faecium
[1] = test system: E. faecium D344SRF pCWR624Δpbp5_pbp5_V3; assay: MIC by broth microdilution, pbp5_V3; settings: strain pbp5_V3 (loop 625-631); 37 °C, 20 h; n=3
Procedure: (§1) The synthetic genes were purchased from GeneWiz (South Plainfield, NJ). The ribosome binding site sequence AGGAGG (Shine-Dalgarno), and a string of five A’s followed by the sequence […], that corresponds to the first 15 bp found in pbp5 from E. faecium C68 were added upstream of the START codon. The terminator sequence […] was added downstream of the STOP codon. BamHI restriction sites were added to the flanking 5′ and 3′ ends. The synthetic genes were inserted into the vector pCWR624Δpbp5. This vector was derived from pCWR624[10], in which the pbp5 gene from D366 was excised by digestion with BamHI followed by re-ligation of the vector, allowing subsequent insertion of modified synthetic pbp5s into the BamHI site downstream of ftsWEfm and psr from E. faecium C68[10]. The synthetic genes were inserted in a BamHI site located downstream of psr. The proper orientation was confirmed by PCR amplification using the forward primer OR_pbp5_FOR_1 (5′-[…]-3′) and the reverse primer OR_pbp5_REV_1 (5′-[…]-3′). Plasmids were sequence verified for the specific binding site mutations. The resulting constructions were electroporated into the natural pbp5(-) mutant E. faecium D344SRF with a selection on brain heart infusion agar (BHI) plates containing kanamycin (1500 µg/ml).
(§2) E. faecium strains were streaked fresh from −80 °C stored glycerol stocks onto brain heart infusion (BHI) agar plates and incubated for 18 h at 37 °C. Strains harboring the plasmid derivatives were grown under antibiotic pressure on agar plates containing kanamycin at 1500 µg/ml. A single colony was inoculated into BHI or BHI-kanamycin (1500 µg/ml) for overnight cultures (18 h).
(§3) MIC determination was performed using a standard broth microdilution technique in duplicate from independent cultures. Overnight cultures were inoculated into 3 ml of BHI or BHI-kanamycin (1500 µg/ml) broth in a dilution of 1:100 and incubated until an OD600 of ~0.5 was reached. Cultures were diluted 1:1000 and inoculated into the 96-well plates with the corresponding antibiotics to be tested. Plates were incubated at 37 °C for 20 h and read by eye. […]

[2] = test system: E. faecium D344SRF pCWR624Δpbp5_pbp5_V5; assay: MIC by broth microdilution, pbp5_V5; settings: strain pbp5_V5 (Q396A_E397A); 37 °C, 20 h; n=3
Procedure: as §1, §2, §3

[3] = test system: E. faecium D344SRF pCWR624 (PBP5 plasmid); assay: MIC by broth microdilution, pCWR624; settings: strain pCWR624; 37 °C, 20 h; n=3
Procedure: as §1, §2, §3

[4] = test system: E. faecium D344SRF pCWR624Δpbp5_pbp5_V2; assay: Disk diffusion assay, pbp5_V2; settings: strain pbp5_V2 (N523A_Q627A); 37 °C, 24 h; n=3
Procedure: as §1, §2
(§4) Antibiotic disks used were manufactured by BD BBL^TM. Disk diffusion assays were performed according to the Clinical and Laboratory Standards Institute (CLSI) guidance. Overnight cultures were inoculated into 3 ml of BHI or BHI-kanamycin (1500 µg/ml) broth with a dilution of 1:100 and incubated until an OD600 of ~0.5 was reached. […] The plates were incubated at 37 °C and the zones of inhibition were measured after 24 h. […]

[5] = test system: E. faecium D344SRF pCWR624Δpbp5_pbp5_V6; assay: MIC by broth microdilution, pbp5_V6; settings: strain pbp5_V6 (E284A_E291A_S294A_N295A); 37 °C, 20 h; n=3
Procedure: as §1, §2, §3

[6] = test system: E. faecium D344SRF pCWR624Δpbp5 (empty plasmid); assay: MIC by broth microdilution, pCWR624Δpbp5; settings: strain pCWR624Δpbp5; 37 °C, 20 h; n=3
Procedure: as §1, §2, §3

[7] = test system: E. faecium D344SRF pCWR624Δpbp5_pbp5_V1; assay: MIC by broth microdilution, pbp5_V1; settings: strain pbp5_V1 (N523A); 37 °C, 20 h; n=3
Procedure: as §1, §2, §3

[8] = test system: E. faecium D344SRF pCWR624Δpbp5_pbp5_V3; assay: Disk diffusion assay, pbp5_V3; settings: strain pbp5_V3 (loop 625-631); 37 °C, 24 h; n=3
Procedure: as §1, §2, §4

[9] = test system: E. faecium D344SRF pCWR624Δpbp5 (empty plasmid); assay: Disk diffusion assay, pCWR624Δpbp5; settings: strain pCWR624Δpbp5; 37 °C, 24 h; n=3
Procedure: as §1, §2, §4

[10] = test system: E. faecium D344SRF pCWR624 (PBP5 plasmid); assay: Disk diffusion assay, pCWR624; settings: strain pCWR624; 37 °C, 24 h; n=3
Procedure: as §1, §2, §4

[11] = test system: E. faecium D344SRF pCWR624Δpbp5_pbp5_V1; assay: Disk diffusion assay, pbp5_V1; settings: strain pbp5_V1 (N523A); 37 °C, 24 h; n=3
Procedure: as §1, §2, §4

[12] = test system: E. faecium D344SRF pCWR624Δpbp5_pbp5_V4; assay: Disk diffusion assay, pbp5_V4; settings: strain pbp5_V4 (D530A_L533A_W457A); 37 °C, 24 h; n=3
Procedure: as §1, §2, §4

[13] = test system: E. faecium D344SRF, Wild Type; settings: strain Wild Type; disks Ampicillin 10 μg, Penicillin 10 U, Ceftriaxone 30 μg; BHI agar, 37 °C, 24 h; n=3
Procedure: as §2
Antibiotic disks used were manufactured by BD BBL^TM. Disk diffusion assays were performed according to the Clinical and Laboratory Standards Institute (CLSI) guidance. Overnight cultures were inoculated into 3 ml of BHI or BHI-kanamycin (1500 µg/ml) broth with a dilution of 1:100 and incubated until an OD600 of ~0.5 was reached. The OD600 was adjusted to 0.01 to get the inoculum suspension. […] The plates were incubated at 37 °C and the zones of inhibition were measured after 24 h. All experiments were conducted in triplicate.

[14] = test system: E. faecium D344SRF pCWR624Δpbp5_pbp5_V6; assay: Disk diffusion assay, pbp5_V6; settings: strain pbp5_V6 (E284A_E291A_S294A_N295A); 37 °C, 24 h; n=3
Procedure: as §1, §2, §4

[15] = test system: E. faecium D344SRF pCWR624Δpbp5_pbp5_V5; assay: Disk diffusion assay, pbp5_V5; settings: strain pbp5_V5 (Q396A_E397A); 37 °C, 24 h; n=3
Procedure: as §1, §2, §4

[16] = test system: E. faecium D344SRF, Wild Type; assay: MIC by broth microdilution, Wild Type; settings: strain Wild Type; BHI broth microdilution, 37 °C, 20 h, read by eye; n=3
Procedure: as §2
MIC determination was performed using a standard broth microdilution technique in duplicate from independent cultures. Overnight cultures were inoculated into 3 ml of BHI or BHI-kanamycin (1500 µg/ml) broth in a dilution of 1:100 and incubated until an OD600 of ~0.5 was reached. Cultures were diluted 1:1000 and inoculated into the 96-well plates with the corresponding antibiotics to be tested. Plates were incubated at 37 °C for 20 h and read by eye. The MICs were defined as the lowest antibiotic concentration that inhibited growth.

[17] = test system: E. faecium D344SRF pCWR624Δpbp5_pbp5_V2; assay: MIC by broth microdilution, pbp5_V2; settings: strain pbp5_V2 (N523A_Q627A); 37 °C, 20 h; n=3
Procedure: as §2

[18] = test system: E. faecium D344SRF pCWR624Δpbp5_pbp5_V4; assay: MIC by broth microdilution, pbp5_V4; settings: strain pbp5_V4 (D530A_L533A_W457A); 37 °C, 20 h; n=3
Procedure: as §1, with “The resulting constructions were electroporated into the natural pbp5(-) mutant E. faecium D344SRF with a selection on brain heart infusion agar (BHI) plates containing kanamycin (1500 µg/ml).” left out
MIC determination was performed using a standard broth microdilution technique in duplicate from independent cultures. […] Plates were incubated at 37 °C for 20 h and read by eye. […]

SMILES	MIC (µg/ml) [Range] [1]	MIC (µg/ml) [Range] [2]	MIC (µg/ml) [Range] [3]	Zone Size (mm) [Range] [4]	MIC (µg/ml) [Range] [5]	MIC (µg/ml) [Range] [6]	MIC (µg/ml) [Range] [7]	Zone Size (mm) [Range] [8]	Zone Size (mm) [Range] [9]	Zone Size (mm) [Range] [10]	Zone Size (mm) [Range] [11]	Zone Size (mm) [Range] [12]	Zone Size (mm) [Range] [13]	Zone Size (mm) [Range] [14]	Zone Size (mm) [Range] [15]	MIC (µg/ml) [Range] [16]	MIC (µg/ml) [Range] [17]	MIC (µg/ml) [Range] [18]
CC1(C)S[C@@H]2[C@H](NC(=O)[C@H](N)c3ccccc3)C(=O)N2[C@H]1C(=O)O [Ampicillin]	< 0.19 [<0.19-0.39] µg/ml	100 [100] µg/ml	100 [100->200] µg/ml	26 [26-28] mm	100 [100] µg/ml	0.78 [0.39-1.56] µg/ml	100 [50-100] µg/ml	32 [30-32] mm	30 [30-32] mm	0 [0] mm	16 [14-16] mm	32 [32] mm	32 [30-32] mm	0 [0-10] mm	0 [0-10] mm	0.39 [0.39-0.78] µg/ml	–	–
CC1(C)S[C@@H]2[C@H](NC(=O)Cc3ccccc3)C(=O)N2[C@H]1C(=O)O [Penicillin, penicillin G]	0.39 [0.39] µg/ml	200 [200] µg/ml	> 200 [>200] µg/ml	26 [26-28] mm	200 [200] µg/ml	0.39 [0.39-1.56] µg/ml	200 [200] µg/ml	32 [30-32] mm	28 [28-32] mm	0 [0] mm	0 [0] mm	32 [30-32] mm	28 [28-32] mm	0 [0] mm	0 [0] mm	0.39 [0.39-0.78] µg/ml	12.5 [12.5-25] µg/ml	0.39 [0.39] µg/ml
